Data published in patent publication US8969312B2, “Low side effect pharmaceutical composition containing antituberculosis drugs” (priority 2011, dated 2015).

Assays:
[1] = target: human liver microsomal cytochrome P450 2E1 (CYP2E1) (Homo sapiens, UniProt P05181); test: Human liver microsomal CYP2E1, chlorzoxazone 6-hydroxylation;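 also: chlorzoxazone added as substrate, 6-hydroxychlorzoxazone formation quantified by LC/MS/MS after 30 min at 37 °C with NADP+ regenerating system, compared against solvent control without test sample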
human liver microsomal cytochrome P450 2E1 (CYP2E1), sequence (P05181 whole entry): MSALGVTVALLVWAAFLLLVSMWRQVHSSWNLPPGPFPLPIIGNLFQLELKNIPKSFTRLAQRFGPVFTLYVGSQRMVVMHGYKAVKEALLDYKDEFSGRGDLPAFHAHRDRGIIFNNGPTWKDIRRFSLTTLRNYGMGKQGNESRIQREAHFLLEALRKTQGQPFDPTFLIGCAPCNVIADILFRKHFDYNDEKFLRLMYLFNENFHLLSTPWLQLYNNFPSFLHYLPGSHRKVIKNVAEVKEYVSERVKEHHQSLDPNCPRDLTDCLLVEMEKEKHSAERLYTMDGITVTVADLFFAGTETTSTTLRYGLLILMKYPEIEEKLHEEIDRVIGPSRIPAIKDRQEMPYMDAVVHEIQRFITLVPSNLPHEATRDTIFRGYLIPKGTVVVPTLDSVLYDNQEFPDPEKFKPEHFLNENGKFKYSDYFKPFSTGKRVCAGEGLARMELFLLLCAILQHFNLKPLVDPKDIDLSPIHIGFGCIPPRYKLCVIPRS
Procedure: Microsomes prepared from human liver were used to extract cytochrome P450 2E1 (CYP2E1) and CYP2E1 inhibitors were screened from 39 Chinese medicine guiding drugs and 10 excipients. Chlorzoxazone hydroxylation is a reaction catalyzed primarily by CYP2E1 in liver. The extracted human liver microsomal cytochrome P450 2E1 (CYP2E1) was mixed with its substrate, Chlorzoxazone, and test sample was then added Inhibition of CYP2E1 activity was calculated by measuring CYP2E1 standard metabolite, 6-OH-CZX (6-Hydroxy-Chlorzoxazone), and compared with control 6-OH-CZX.
After incubation, 16 mM Chlorzoxazone and test samples were added to experimental groups; methanol:sterilized water at 1:1 ratio was added to control groups and DDTC was added to positive control groups,
Finally, cofactor 1 mM NADP^+, 10 mM G6P and 2 IU G6PD were added and reaction mixtures were transferred to pre-incubation 37° C. water bath for 1 mM and activity was measured after 30 min of reaction
At the end of reaction, 500 μl acetonitrile was added to stop the reaction followed by 5 g/mL 4-hydroxy-tobutamide after 1 mM incubation. The mixture was then centrifuged and 20 L of supernatant was diluted ten times with methanol/sterilized water and 5 L was used for LC/MS/MS analysis. […] The inhibition of CYP2E1 was then calculated by the following equation:

amidase = test: Mouse liver microsomal amidase, isoniazid to isonicotinic acid; format: biochemical
From the text: Mouse liver microsomes were used as the source of amidase, and isoniazid was used as the amidase metabolism drugs. quantitative isoniazid was catalyzed into metabolites isonicotinic acid (INA) by amidase, and was used as the index for measurement of the amidase activity for establishment of the platform for screening in vitro amidase activity inhibitors. The HPLC system includes a Shimadzu the LC-LOAD pump, 1 Shimadzu system control and a Shimadzu autosampler (Shimadzu Scientific Instrument, Japan). A C18 column (particle size 5 μm, inner diameter of 50×4.6 mm, 25 cm) containing 70% methanol and 30% ammonium formate (50 mM, pH=2.5) of the mobile phase for HPLC separation, and the experimental steps are outlined as follows:
(2) An aliquot of 150 μL mouse liver microsomal solution was added to 100 μL isoniazid solution in 35 μL 67 mM potassium phosphate buffer solution ([…], pH=7) with a final concentration at 3 mM, and then mixed thoroughly with 15 μL amidase inhibitor (deionized water was added in the control group). (3) Incubation at 37° C. water bath for 30 minutes. (4) An aliquot of 300 μL acetonitrile (ACN) was added and mixed thoroughly, and incubated for 6 minutes. (5) An aliquot of 30 μL perchloric acid was then mixed and incubated for 6 minutes. (6) The mixture was centrifuged at 13000 g for 6 minutes. (7) After centrifugation, 100 μL of the supernatant was injected into HPLC. (8) Methanol ammonium formate (50 mM, pH=2.5)=70:30 (V/V) was selected as the mobile phase, and the flow rate was controlled at […] and detected at 270 nm UV. […] The amidase inhibition % was then calculated using the following formula: […]

[2] = Table 6, minimum tested concentration (mg/L) × volume of human liver and intestine (3 L)

COc1ccc(-c2oc3cc(O)cc(O)c3c(=O)c2O)cc1O [Tamarixetin]
Minimum Effective Dose [1, 2]: 17 mg
Amidase inhibition (amidase; 1 uM): 3.5 ± 10.5%
Amidase inhibition (amidase; 10 uM): 27.9 ± 6.3%
Amidase inhibition (amidase; 100 uM): 28.9 ± 4.2%

COc1cc(C2Oc3cc([C@H]4Oc5cc(O)cc(O)c5C(=O)[C@@H]4O)ccc3OC2CO)ccc1O (stereo partly shown) [Silybin]
Minimum Effective Dose [1, 2]: 26 mg

COc1ccc([C@@H]2CC(=O)c3c(O)cc(O[C@@H]4O[C@H](CO)[C@@H](O)[C@H](O)[C@H]4O[C@@H]4O[C@@H](C)[C@H](O)[C@@H](O)[C@H]4O)cc3O2)cc1O [Neohesperidin]
Inhibition of CYP 2E1 ([1]; 16.5 μM): 42.81 ± 1.75%
Inhibition of CYP 2E1 ([1]; 33 μM): 48.96 ± 2.37%
Inhibition of CYP 2E1 ([1]; 66 μM): 58.70 ± 1.06%
Minimum Effective Dose [1, 2]: 33 mg

O=c1cc(-c2ccc(O)cc2)oc2cc(O)cc(O)c12 [Apigenin]
Minimum Effective Dose [1, 2]: 15 mg
Amidase inhibition (amidase; 1 uM): −10.2 ± 20.3%
Amidase inhibition (amidase; 10 uM): 13.2 ± 3.4%

O=S(=O)([O-])NC1CCCCC1.[Na+] [Sodium cyclamate]
Inhibition of CYP 2E1 ([1]; 16.5 μM): 9.4 ± 2.7%
Inhibition of CYP 2E1 ([1]; 33 μM): 1.7 ± 4.7%
Inhibition of CYP 2E1 ([1]; 66 μM): 9.1 ± 2.6%

COc1cc(-c2oc3cc(O)cc(O)c3c(=O)c2O)ccc1O [Isorhamnetin]
Minimum Effective Dose [1, 2]: 14 mg
Amidase inhibition (amidase; 1 uM): 13.8 ± 1.0%
Amidase inhibition (amidase; 10 uM): 20.0 ± 4.6%
Amidase inhibition (amidase; 100 uM): 31.3 ± 1.3%

O=c1c(O)c(-c2ccc(O)cc2O)oc2cc(O)cc(O)c12 [Morin]
Minimum Effective Dose [1, 2]: 16 mg
Amidase inhibition (amidase; 1 uM): −16.6 ± 4.8%
Amidase inhibition (amidase; 10 uM): 9.1 ± 1.7%
Amidase inhibition (amidase; 100 uM): 59.8 ± 5.1%

COc1ccc([C@@H]2CC(=O)c3c(O)cc(O[C@@H]4O[C@H](CO[C@@H]5O[C@@H](C)[C@H](O)[C@@H](O)[C@H]5O)[C@@H](O)[C@H](O)[C@H]4O)cc3O2)cc1O [Hesperidin]
Inhibition of CYP 2E1 ([1]; 16.5 μM): 45.32 ± 1.57%
Inhibition of CYP 2E1 ([1]; 33 μM): 50.91 ± 2.81%
Inhibition of CYP 2E1 ([1]; 66 μM): 58.57 ± 3.78%
Minimum Effective Dose [1, 2]: 33 mg

C=C(C)C1CC=C(C)CC1 (single isomer, unassigned; (+)) [(+)-Limonene]
Inhibition of CYP 2E1 ([1]; 16.5 μM): 13.77 ± 1.96%
Inhibition of CYP 2E1 ([1]; 33 μM): 38.05 ± 1.95%
Inhibition of CYP 2E1 ([1]; 66 μM): 63.64 ± 2.74%
Amidase inhibition (amidase; 1 uM): 5.1 ± 0.4%
Amidase inhibition (amidase; 10 uM): 3.2 ± 8.6%
Amidase inhibition (amidase; 100 uM): 6.2 ± 3.8%

O=c1cc(-c2ccccc2)oc2cc(O)c(O)c(O)c12 [Baicalein]
Minimum Effective Dose [1, 2]: 15 mg
Amidase inhibition (amidase; 1 uM): 2.8 ± 15.1%
Amidase inhibition (amidase; 10 uM): 5.7 ± 2.6%
Amidase inhibition (amidase; 100 uM): 15.6 ± 1.0%

O=c1c(O[C@@H]2O[C@H](CO)[C@H](O)[C@H](O)[C@H]2O)c(-c2ccc(O)c(O)c2)oc2cc(O)cc(O)c12 [Hyperoside]
Minimum Effective Dose [1, 2]: 25 mg

C=CC(=C)CCC=C(C)C [β-Myrcene]
Minimum Effective Dose [1, 2]: 8 mg
Amidase inhibition (amidase; 1 uM): 1.7 ± 1.3%
Amidase inhibition (amidase; 10 uM): 6.6 ± 4.1%
Amidase inhibition (amidase; 100 uM): 5.8 ± 2.7%

CCCCCCCCCCCCCC(=O)OCC [Ethyl Myristate]
Minimum Effective Dose [1, 2]: 14 mg

O=c1cc(-c2ccc(O)c(O)c2)oc2cc(O)cc(O)c12 [Luteolin]
Minimum Effective Dose [1, 2]: 16 mg
Amidase inhibition (amidase; 1 uM): 6.1 ± 9.1%
Amidase inhibition (amidase; 10 uM): 23.0 ± 6.0%
Amidase inhibition (amidase; 100 uM): 47.5 ± 6.2%

O=c1c(-c2ccc(O)cc2)coc2cc(O)ccc12 [Daidzein]
Minimum Effective Dose [1, 2]: 14 mg
Amidase inhibition (amidase; 1 uM): −12.1 ± 6.3%
Amidase inhibition (amidase; 10 uM): 1.0 ± 7.4%
Amidase inhibition (amidase; 100 uM): 16.2 ± 12.6%

Oc1cc(O)c2c(c1)O[C@H](c1cc(O)c(O)c(O)c1)[C@H](O)C2 [(−)-Epigallocatechin]
Inhibition of CYP 2E1 ([1]; 16.5 μM): 38.95 ± 1.92%
Inhibition of CYP 2E1 ([1]; 33 μM): 36.40 ± 2.18%
Inhibition of CYP 2E1 ([1]; 66 μM): 57.08 ± 1.85%
Minimum Effective Dose [1, 2]: 17 mg
Amidase inhibition (amidase; 1 uM): −1.2 ± 2.1%
Amidase inhibition (amidase; 10 uM): −7.3 ± 7.6%
Amidase inhibition (amidase; 100 uM): 2.2 ± 4.1%

O=c1cc(-c2ccc(O)cc2)oc2cc(O)c([C@@H]3O[C@H](CO)[C@@H](O)[C@H](O)[C@H]3O)c(O)c12 [Isovitexin]
Minimum Effective Dose [1, 2]: 24 mg
Amidase inhibition (amidase; 1 uM): 13.9 ± 2.3%
Amidase inhibition (amidase; 10 uM): 5.8 ± 2.7%
Amidase inhibition (amidase; 100 uM): 1.1 ± 7.1%

(−)-Epicatechin-3-gallate
Inhibition of CYP 2E1 ([1]; 16.5 μM): 30.31 ± 1.27%
Inhibition of CYP 2E1 ([1]; 33 μM): 34.84 ± 1.72%
Inhibition of CYP 2E1 ([1]; 66 μM): 42.92 ± 0.65%
Minimum Effective Dose [1, 2]: 24 mg

O=c1c(O)c(-c2cc(O)c(O)c(O)c2)oc2cc(O)cc(O)c12 [Myricetin]
Minimum Effective Dose [1, 2]: 17 mg
Amidase inhibition (amidase; 1 uM): 8.0 ± 4.9%
Amidase inhibition (amidase; 10 uM): 37.8 ± 8.4%
Amidase inhibition (amidase; 100 uM): 56.4 ± 1.5%

COc1ccc(O)c(C(C)(C)C)c1 [Butylated hydroxyl anisol]
Inhibition of CYP 2E1 ([1]; 16.5 μM): −16.8 ± 0.5%
Inhibition of CYP 2E1 ([1]; 33 μM): −47.1 ± 5.1%
Inhibition of CYP 2E1 ([1]; 66 μM): −85.5 ± 3.9%
Minimum Effective Dose ([1]; Table 7): 9 mg

Magnesium stearate
Inhibition of CYP 2E1 ([1]; 16.5 μM): 2.0 ± 1.0%
Inhibition of CYP 2E1 ([1]; 33 μM): 3.0 ± 0.7%
Inhibition of CYP 2E1 ([1]; 66 μM): 5.0 ± 1.6%

O=C/C=C/c1ccccc1 [Trans-Cinnamaldehyde]
Minimum Effective Dose [1, 2]: 7 mg

O=c1cc(-c2ccc(O)c(O)c2)oc2cc(O[C@@H]3O[C@H](CO)[C@@H](O)[C@H](O)[C@H]3O)cc(O)c12 [Luteolin-7-Glucoside]
Inhibition of CYP 2E1 ([1]; 16.5 μM): 42.96 ± 5.10%
Inhibition of CYP 2E1 ([1]; 33 μM): 55.87 ± 0.67%
Inhibition of CYP 2E1 ([1]; 66 μM): 60.26 ± 1.11%
Minimum Effective Dose [1, 2]: 24 mg
Amidase inhibition (amidase; 1 uM): 3.2 ± 0.8%
Amidase inhibition (amidase; 10 uM): 8.7 ± 1.9%
Amidase inhibition (amidase; 100 uM): 12.9 ± 3.1%

C[C@@H]1O[C@@H](OC[C@H]2O[C@@H](Oc3cc(O)c4c(c3)O[C@H](c3ccc(O)c(O)c3)CC4=O)[C@H](O)[C@@H](O)[C@@H]2O)[C@H](O)[C@H](O)[C@H]1O [Eriocitrin]
Amidase inhibition (amidase; 1 uM): −16.1 ± 12.8%
Amidase inhibition (amidase; 10 uM): 19.0 ± 3.0%
Amidase inhibition (amidase; 100 uM): 32.8 ± 1.9%

O=[N+]([O-])c1ccc(OP(=O)(O)Oc2ccc([N+](=O)[O-])cc2)cc1 [BNPP, bis-p-nitrophenyl phosphate, reference compound]
Amidase inhibition (amidase; positive control, own concentration not given): 92.1 ± 8.7%

O=C(O[C@@H]1Cc2c(O)cc(O)cc2O[C@@H]1c1cc(O)c(O)c(O)c1)c1cc(O)c(O)c(O)c1 [(−)-Epigallocetechin-3-gallate]
Inhibition of CYP 2E1 ([1]; 16.5 μM): 50.19 ± 1.89%
Inhibition of CYP 2E1 ([1]; 33 μM): 60.53 ± 2.06%
Inhibition of CYP 2E1 ([1]; 66 μM): 72.16 ± 1.02%

C[C@@H]1O[C@@H](Oc2c(-c3ccc(O)c(O)c3)oc3cc(O)cc(O)c3c2=O)[C@H](O)[C@H](O)[C@H]1O [Quercitrin]
Minimum Effective Dose [1, 2]: 24 mg

Oc1cc(O)c2c(c1)O[C@@H](c1ccc(O)c(O)c1)[C@@H](O)C2 [(+)-Epicatechin]
Inhibition of CYP 2E1 ([1]; 16.5 μM): 66.71 ± 1.79%
Inhibition of CYP 2E1 ([1]; 33 μM): 52.32 ± 1.59%
Minimum Effective Dose [1, 2]: 16 mg

O=c1c(O)c(-c2ccc(O)c(O)c2)oc2cc(O)cc(O)c12 [Quercetin]
Minimum Effective Dose [1, 2]: 16 mg
Amidase inhibition (amidase; 1 uM): 48.1 ± 15.0%
Amidase inhibition (amidase; 10 uM): 62.3 ± 4.4%
Amidase inhibition (amidase; 100 uM): 75.5 ± 2.2%

COc1ccc(-c2cc(=O)c3c(O)cc(O[C@@H]4O[C@H](CO[C@@H]5O[C@@H](C)[C@H](O)[C@@H](O)[C@H]5O)[C@@H](O)[C@H](O)[C@H]4O)cc3o2)cc1O [Diosmin]
Minimum Effective Dose [1, 2]: 33 mg
Amidase inhibition (amidase; 1 uM): 0.3 ± 8.1%
Amidase inhibition (amidase; 10 uM): −0.7 ± 7.7%
Amidase inhibition (amidase; 100 uM): 1.6 ± 5.1%

O=C([O-])c1ccccc1.[Na+] [Sodium benzoate]
Inhibition of CYP 2E1 ([1]; 0.08% (w/v)): 7.8 ± 4.1%
Inhibition of CYP 2E1 ([1]; 0.167% (w/v)): 15.8 ± 0.9%
Minimum Effective Dose ([1]; Table 7): 9 mg
Inhibition of CYP 2E1 ([1]; […] (w/v)): 7.1 ± 2.0%

C[C@@H]1O[C@@H](OC[C@H]2O[C@@H](Oc3c(-c4ccc(O)c(O)c4)oc4cc(O)cc(O)c4c3=O)[C@H](O)[C@@H](O)[C@@H]2O)[C@H](O)[C@H](O)[C@H]1O [Rutin]
Minimum Effective Dose [1, 2]: 33 mg

O=C1C[C@@H](c2ccc(O)c(O)c2)Oc2cc(O)cc(O)c21 [Eriodictyol]
Amidase inhibition (amidase; 1 uM): 9.0 ± 4.7%
Amidase inhibition (amidase; 10 uM): 6.5 ± 11.3%
Amidase inhibition (amidase; 100 uM): 22.3 ± 4.7%

O=C(O)[C@H]1O[C@@H](Oc2cc3oc(-c4ccccc4)cc(=O)c3c(O)c2O)[C@H](O)[C@@H](O)[C@@H]1O [Baicalin]
Minimum Effective Dose [1, 2]: 24 mg
Amidase inhibition (amidase; 1 uM): 2.1 ± 7.5%
Amidase inhibition (amidase; 10 uM): 15.2 ± 6.3%
Amidase inhibition (amidase; 100 uM): 34.8 ± 10.2%

O=c1c(O)c(-c2ccc(O)c(O)c2)oc2cc(O)ccc12 [Fisetin]
Amidase inhibition (amidase; 1 uM): −9.2 ± 2.5%
Amidase inhibition (amidase; 10 uM): 38.3 ± 2.0%
Amidase inhibition (amidase; 100 uM): 56.4 ± 2.9%

O=c1c(-c2ccc(O)cc2)coc2cc(O)cc(O)c12 [Genistein]
Minimum Effective Dose [1, 2]: 15 mg
Amidase inhibition (amidase; 1 uM): −2.1 ± 46.2%
Amidase inhibition (amidase; 10 uM): 1.8 ± 7.6%
Amidase inhibition (amidase; 100 uM): 5.8 ± 6.8%

O=c1cc(-c2ccc(O)cc2)oc2c([C@@H]3O[C@H](CO)[C@@H](O)[C@H](O)[C@H]3O)c(O)cc(O)c12 [Vitexin]
Minimum Effective Dose [1, 2]: 24 mg
